# Source: PubChem BioAssay (NCI)
#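 Results reflect a 48-hour exposure of cells in 96-well plates to compound at five concentrations. TGI denotes the concentration required for complete inhibition of growth.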
# How the values were obtained:
# Assay in all cases: DTP human tumour cell line panel, 48 h
# A549 NSCLC = tested on: A549 NSCLC
# DU-145 prostate = tested on: DU-145 prostate
# HCT-15 colon = tested on: HCT-15 colon
# HOP-92 NSCLC = tested on: HOP-92 NSCLC
# IGROV1 ovarian = tested on: IGROV1 ovarian
# K-562 leukemia = tested on: K-562 leukemia
# LOX IMVI melanoma = tested on: LOX IMVI melanoma
# MCF7 breast = tested on: MCF7 breast
# MDA-N = tested on: MDA-N
# MOLT-4 leukemia = tested on: MOLT-4 leukemia
# NCI-H226 lung = tested on: NCI-H226 lung
# OVCAR-4 ovarian = tested on: OVCAR-4 ovarian
# OVCAR-8 ovarian = tested on: OVCAR-8 ovarian
# RXF 393 renal = tested on: RXF 393 renal
# SK-OV-3 ovarian = tested on: SK-OV-3 ovarian
# SN12C renal = tested on: SN12C renal
# SNB-75 CNS = tested on: SNB-75 CNS
# SR leukemia = tested on: SR leukemia
# T-47D breast = tested on: T-47D breast
# UACC-62 melanoma = tested on: UACC-62 melanoma
SMILES,TGI (A549 NSCLC),TGI (DU-145 prostate),TGI (HCT-15 colon),TGI (HOP-92 NSCLC),TGI (IGROV1 ovarian),TGI (K-562 leukemia),TGI (LOX IMVI melanoma),TGI (MCF7 breast),TGI (MDA-N),TGI (MOLT-4 leukemia),TGI (NCI-H226 lung),TGI (OVCAR-4 ovarian),TGI (OVCAR-8 ovarian),TGI (RXF 393 renal),TGI (SK-OV-3 ovarian),TGI (SN12C renal),TGI (SNB-75 CNS),TGI (SR leukemia),TGI (T-47D breast),TGI (UACC-62 melanoma)
CCOC(=O)CC(=O)C(=O)NNC1=NCCN1,> 100 µM,> 100 µM,> 100 µM,> 100 µM,> 100 µM,> 100 µM,> 100 µM,> 100 µM,> 100 µM,> 100 µM,> 100 µM,> 100 µM,> 100 µM,> 100 µM,> 100 µM,> 100 µM,> 100 µM,> 100 µM,> 100 µM,> 100 µM
O=C(NO)c1ccc(OCc2cccc(Cl)c2)cc1,> 63.8 µM,> 47.3 µM,29.9 µM,51.4 µM,23.3 µM,> 31.6 µM,> 56.6 µM,> 100 µM,35.4 µM,> 45.9 µM,36 µM,> 58 µM,33.3 µM,47.6 µM,66.1 µM,55.9 µM,> 70.2 µM,> 28.5 µM,> 61.5 µM,21.7 µM
N=c1oc2c(Br)cc(Br)cc2cc1C(=O)Nc1ccccn1,> 100 µM,> 100 µM,> 100 µM,> 100 µM,> 100 µM,> 100 µM,> 100 µM,> 100 µM,> 100 µM,> 100 µM,> 100 µM,> 100 µM,> 100 µM,> 100 µM,> 100 µM,> 100 µM,> 100 µM,> 100 µM,> 100 µM,> 100 µM
CC1(C)C(C#N)=[N+]([O-])C(C)(C)N1O,> 100 µM,> 100 µM,> 100 µM,> 100 µM,> 100 µM,> 100 µM,> 100 µM,> 100 µM,> 100 µM,> 100 µM,> 100 µM,> 100 µM,> 100 µM,> 100 µM,> 100 µM,> 100 µM,> 100 µM,> 100 µM,> 100 µM,> 100 µM
O=C1OC2C(O)COC2(O)C1(O)C(C[N+](=O)[O-])c1ccc(Cl)cc1 (stereo not given),37.1 µM,34.2 µM,16.7 µM,54.2 µM,21.9 µM,22.4 µM,7.35 µM,5 µM,6.98 µM,10.9 µM,26.6 µM,19.4 µM,51.1 µM,9.21 µM,31 µM,37.9 µM,20.1 µM,19.6 µM,43.2 µM,22.8 µM
C=C(C)CNC(=S)N(N)c1ccc(OC)cc1,> 100 µM,> 100 µM,56.8 µM,> 100 µM,> 100 µM,> 100 µM,> 100 µM,> 100 µM,> 100 µM,> 100 µM,> 100 µM,> 100 µM,> 100 µM,> 100 µM,> 100 µM,> 100 µM,> 100 µM,> 100 µM,> 100 µM,67.7 µM
O=C(Nc1cccc(NC(=O)C(=O)C2CCC3=C(Sc4ccccc4N3)C2=O)n1)C(=O)C1CCC2=C(Sc3ccccc3N2)C1=O (stereo not given),> 100 µM,> 100 µM,> 100 µM,> 100 µM,> 100 µM,> 100 µM,> 100 µM,> 100 µM,> 100 µM,> 100 µM,> 100 µM,71.7 µM,> 100 µM,> 100 µM,> 100 µM,> 100 µM,70.2 µM,> 100 µM,> 100 µM,> 100 µM
COc1ccc(C2=Nn3c(nc4sc(C)c(C)c4c3=O)SC2)cc1,> 100 µM,> 100 µM,> 100 µM,> 100 µM,> 100 µM,> 100 µM,> 100 µM,> 100 µM,> 100 µM,> 100 µM,> 100 µM,> 100 µM,> 100 µM,> 100 µM,> 100 µM,> 100 µM,> 100 µM,> 100 µM,> 100 µM,> 100 µM
Cc1c(-c2ccccc2)[nH]c2ccc(Cl)cc2c1=O,0.205 µM,> 100 µM,> 100 µM,52 µM,> 100 µM,> 100 µM,> 100 µM,> 100 µM,54.6 µM,> 100 µM,> 100 µM,59.7 µM,69.5 µM,57.6 µM,87.6 µM,> 100 µM,95.2 µM,> 100 µM,> 100 µM,> 100 µM
C/C(=C/c1ccccc1)CN(C(=O)/C=C\Sc1ccccc1)C(C)(C)C,> 100 µM,> 100 µM,> 100 µM,> 71.6 µM,> 100 µM,> 100 µM,> 100 µM,> 100 µM,> 100 µM,> 100 µM,> 100 µM,> 100 µM,> 100 µM,> 100 µM,> 100 µM,> 100 µM,> 100 µM,> 100 µM,> 100 µM,> 100 µM
O=C(NCCc1ccccc1)[C@H]1CCCC[C@@H]1CCO,> 100 µM,> 100 µM,> 100 µM,> 100 µM,> 100 µM,> 100 µM,> 100 µM,> 100 µM,> 100 µM,> 100 µM,> 100 µM,> 100 µM,> 100 µM,> 100 µM,> 100 µM,> 100 µM,> 100 µM,> 100 µM,> 100 µM,> 100 µM
O=C(Nc1cc2c(=O)[nH]c3ccccc3c2oc1=O)c1cnccn1,> 100 µM,> 100 µM,> 100 µM,> 100 µM,> 100 µM,> 100 µM,> 100 µM,> 100 µM,> 100 µM,> 100 µM,> 100 µM,> 100 µM,> 100 µM,> 100 µM,> 100 µM,> 100 µM,> 100 µM,> 100 µM,> 100 µM,> 100 µM
Cc1ccccc1N=CN(C)C,> 100 µM,> 100 µM,> 100 µM,> 100 µM,> 100 µM,44.4 µM,> 100 µM,> 100 µM,> 100 µM,> 100 µM,> 100 µM,> 100 µM,> 100 µM,> 100 µM,> 100 µM,> 100 µM,> 100 µM,> 100 µM,> 100 µM,> 100 µM
CC(=O)OCC1OC(n2c(C#N)cc(=O)[nH]c2=O)CC1OC(C)=O (stereo not given),> 100 µM,> 100 µM,> 100 µM,> 100 µM,> 100 µM,> 100 µM,> 100 µM,> 100 µM,> 100 µM,> 100 µM,> 100 µM,> 100 µM,> 100 µM,> 100 µM,> 100 µM,> 100 µM,> 100 µM,> 100 µM,> 100 µM,> 100 µM
O=c1[nH]c(=O)n(C2OC(CO)C(O)C2O)c2ncc(-c3ccc(-c4ccccc4)cc3)nc12 (stereo not given),> 20 µM,> 20 µM,> 20 µM,> 20 µM,> 20 µM,> 20 µM,> 20 µM,> 20 µM,> 20 µM,> 20 µM,> 20 µM,> 20 µM,> 20 µM,> 20 µM,> 20 µM,> 20 µM,> 20 µM,> 20 µM,> 20 µM,> 20 µM
